The source of these data is patent US8063208B2, “Crystalline forms of (3R,4R)-4-amino-1-[[4-[(3-methoxyphenyl)amino]pyrrolo[2,1-f][1,2,4]triazin-5-yl]methyl]piperidin-3-ol” (Bristol-Myers Squibb Company, priority 2006, dated 2011).

One data set deals with HER1 (Homo sapiens, UniProt P00533). The data set is described as follows: HER1 tyrosine kinase inhibition. It is filed as biochemical.
Data set [1] deals with HER2 and HER1 driven tumor xenograft models. The data set is described as follows: Anti-tumor efficacy in tumor xenograft models. It is filed as in vivo.
In a further data set the target is VEGFR2 (Homo sapiens, UniProt P35968). The data set is described as follows: VEGFR2 inhibition. It is filed as biochemical.
Another data set concerns various tumor cell lines. Description: Antiproliferative activity in tumor cell lines. Type of data set: cell-based.
For another data set, the target named is HER2 (Homo sapiens, UniProt P04626). The data set is described as follows: HER2 tyrosine kinase inhibition. It is filed as biochemical.
A further data set addresses HER4 (Homo sapiens, UniProt Q15303). Description: HER4 tyrosine kinase inhibition. It is filed as biochemical.
Data set [2] is described as follows: Relative thermodynamic stability of crystalline forms. Type of data set: physicochemical. The settings on record: temperatures from room temperature to 50° C.
A short description of data set [3]: Slurry conversion of mixtures of forms. It is filed as physicochemical. The settings on record: slurried mixtures of N-1 and N-2 convert to Form N-2.
Data set [4] can be described thus: Form conversion on heating (melt/recrystallization). The settings on record: melts at about 137° C. Type of data set: physicochemical. As for the experimental part:
Differential scanning calorimetry (DSC) experiments were performed in a TA Instruments™ model Q1000 or 2920. The sample (about 2-6 mg) was weighed in an aluminum pan and recorded accurately recorded to a hundredth of a milligram, and transferred to the DSC. The instrument was purged with nitrogen gas at 50 mL/min. Data were collected between room temperature and 300° C. at 10° C./min heating rate. The plot was made with the endothermic peaks pointing down.

Sequence of HER4 (Q15303 26-1308): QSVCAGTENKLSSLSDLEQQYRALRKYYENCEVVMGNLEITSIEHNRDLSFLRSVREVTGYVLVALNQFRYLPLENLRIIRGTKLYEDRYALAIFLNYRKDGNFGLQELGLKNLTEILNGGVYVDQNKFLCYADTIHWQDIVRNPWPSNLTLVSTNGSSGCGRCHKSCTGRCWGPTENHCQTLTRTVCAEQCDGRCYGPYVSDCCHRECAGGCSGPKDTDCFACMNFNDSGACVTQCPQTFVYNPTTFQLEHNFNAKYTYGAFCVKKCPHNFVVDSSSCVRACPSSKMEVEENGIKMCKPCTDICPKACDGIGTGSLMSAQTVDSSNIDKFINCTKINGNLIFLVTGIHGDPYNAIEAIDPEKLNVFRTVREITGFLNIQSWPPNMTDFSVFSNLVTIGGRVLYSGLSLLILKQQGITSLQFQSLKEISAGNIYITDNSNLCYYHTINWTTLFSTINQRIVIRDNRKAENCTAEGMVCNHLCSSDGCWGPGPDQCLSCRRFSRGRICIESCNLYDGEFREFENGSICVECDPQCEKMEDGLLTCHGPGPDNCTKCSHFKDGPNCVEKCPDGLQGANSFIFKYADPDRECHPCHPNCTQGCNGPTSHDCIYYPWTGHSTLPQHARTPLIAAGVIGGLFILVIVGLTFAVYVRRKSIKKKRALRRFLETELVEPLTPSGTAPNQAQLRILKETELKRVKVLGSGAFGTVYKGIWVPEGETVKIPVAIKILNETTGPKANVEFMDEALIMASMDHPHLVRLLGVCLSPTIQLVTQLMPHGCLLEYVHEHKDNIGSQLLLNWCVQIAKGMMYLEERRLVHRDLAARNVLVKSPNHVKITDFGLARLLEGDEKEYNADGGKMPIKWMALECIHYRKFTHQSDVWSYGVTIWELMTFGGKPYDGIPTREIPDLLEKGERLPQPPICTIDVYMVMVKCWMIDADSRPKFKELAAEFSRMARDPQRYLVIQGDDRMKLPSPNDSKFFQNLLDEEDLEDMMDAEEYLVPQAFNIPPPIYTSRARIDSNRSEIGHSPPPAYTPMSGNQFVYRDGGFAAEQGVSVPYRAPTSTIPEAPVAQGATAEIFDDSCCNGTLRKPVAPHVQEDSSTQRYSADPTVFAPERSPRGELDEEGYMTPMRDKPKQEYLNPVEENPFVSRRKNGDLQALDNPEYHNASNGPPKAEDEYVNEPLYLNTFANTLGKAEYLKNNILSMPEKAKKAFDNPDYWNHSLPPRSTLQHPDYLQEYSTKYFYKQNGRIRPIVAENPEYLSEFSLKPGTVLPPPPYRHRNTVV
Sequence of HER1 (P00533 25-1210): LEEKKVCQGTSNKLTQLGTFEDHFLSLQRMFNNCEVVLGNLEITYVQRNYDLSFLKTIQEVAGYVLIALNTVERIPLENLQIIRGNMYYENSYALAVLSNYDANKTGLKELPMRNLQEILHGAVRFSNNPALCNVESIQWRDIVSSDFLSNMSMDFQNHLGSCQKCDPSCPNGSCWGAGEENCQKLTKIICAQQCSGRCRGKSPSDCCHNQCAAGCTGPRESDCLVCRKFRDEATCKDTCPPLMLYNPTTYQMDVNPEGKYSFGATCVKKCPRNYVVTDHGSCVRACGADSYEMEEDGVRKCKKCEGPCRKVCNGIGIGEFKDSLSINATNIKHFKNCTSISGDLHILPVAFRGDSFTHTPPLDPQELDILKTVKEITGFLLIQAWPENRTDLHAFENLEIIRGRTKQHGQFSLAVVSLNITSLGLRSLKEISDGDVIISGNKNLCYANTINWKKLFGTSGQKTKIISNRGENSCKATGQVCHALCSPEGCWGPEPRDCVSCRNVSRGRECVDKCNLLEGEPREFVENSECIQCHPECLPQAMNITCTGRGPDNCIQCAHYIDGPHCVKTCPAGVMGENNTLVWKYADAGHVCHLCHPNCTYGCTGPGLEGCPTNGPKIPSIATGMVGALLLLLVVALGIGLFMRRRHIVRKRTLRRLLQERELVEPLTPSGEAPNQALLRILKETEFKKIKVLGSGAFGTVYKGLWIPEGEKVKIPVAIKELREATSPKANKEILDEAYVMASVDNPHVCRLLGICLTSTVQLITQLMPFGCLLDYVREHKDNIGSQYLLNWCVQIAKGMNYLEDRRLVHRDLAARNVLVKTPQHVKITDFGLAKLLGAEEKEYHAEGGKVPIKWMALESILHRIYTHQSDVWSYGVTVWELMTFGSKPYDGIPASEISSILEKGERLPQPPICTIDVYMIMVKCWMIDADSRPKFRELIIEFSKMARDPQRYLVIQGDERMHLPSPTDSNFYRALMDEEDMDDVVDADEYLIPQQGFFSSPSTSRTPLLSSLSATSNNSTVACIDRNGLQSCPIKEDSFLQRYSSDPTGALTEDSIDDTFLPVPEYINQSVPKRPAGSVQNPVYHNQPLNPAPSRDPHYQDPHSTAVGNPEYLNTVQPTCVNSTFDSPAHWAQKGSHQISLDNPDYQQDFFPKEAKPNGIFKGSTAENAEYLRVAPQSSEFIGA
Sequence of HER2 (P04626 23-1255): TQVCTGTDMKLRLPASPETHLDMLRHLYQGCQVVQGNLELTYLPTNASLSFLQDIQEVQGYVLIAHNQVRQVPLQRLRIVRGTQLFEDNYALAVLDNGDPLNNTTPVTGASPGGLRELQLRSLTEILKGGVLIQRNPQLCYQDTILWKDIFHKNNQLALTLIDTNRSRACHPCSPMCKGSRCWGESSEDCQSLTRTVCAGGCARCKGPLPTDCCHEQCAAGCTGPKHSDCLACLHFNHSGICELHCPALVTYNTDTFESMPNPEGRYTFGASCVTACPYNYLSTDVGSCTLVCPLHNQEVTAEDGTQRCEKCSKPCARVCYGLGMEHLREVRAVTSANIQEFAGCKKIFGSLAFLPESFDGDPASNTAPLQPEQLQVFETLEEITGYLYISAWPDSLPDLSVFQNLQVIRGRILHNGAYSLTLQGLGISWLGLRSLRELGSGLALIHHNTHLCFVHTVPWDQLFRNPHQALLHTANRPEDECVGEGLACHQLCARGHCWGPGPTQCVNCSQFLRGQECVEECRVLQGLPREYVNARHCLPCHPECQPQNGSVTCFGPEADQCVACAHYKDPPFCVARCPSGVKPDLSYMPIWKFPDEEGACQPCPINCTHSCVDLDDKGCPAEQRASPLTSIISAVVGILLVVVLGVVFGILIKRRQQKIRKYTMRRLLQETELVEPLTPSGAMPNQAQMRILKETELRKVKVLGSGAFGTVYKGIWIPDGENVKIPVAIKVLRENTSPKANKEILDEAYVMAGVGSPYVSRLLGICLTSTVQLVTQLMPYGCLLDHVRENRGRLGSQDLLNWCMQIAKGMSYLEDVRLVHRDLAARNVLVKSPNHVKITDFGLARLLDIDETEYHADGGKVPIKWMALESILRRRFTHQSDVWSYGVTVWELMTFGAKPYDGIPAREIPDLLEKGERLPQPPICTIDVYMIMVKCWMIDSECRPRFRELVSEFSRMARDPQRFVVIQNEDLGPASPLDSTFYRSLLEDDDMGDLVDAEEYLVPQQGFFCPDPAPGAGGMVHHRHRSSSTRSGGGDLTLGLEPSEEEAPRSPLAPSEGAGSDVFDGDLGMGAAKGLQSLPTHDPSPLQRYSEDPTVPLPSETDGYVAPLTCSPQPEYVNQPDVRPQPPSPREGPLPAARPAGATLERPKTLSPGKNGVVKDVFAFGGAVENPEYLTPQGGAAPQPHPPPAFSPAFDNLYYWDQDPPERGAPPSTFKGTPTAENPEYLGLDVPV
Sequence of VEGFR2 (P35968 20-1356, species assumed): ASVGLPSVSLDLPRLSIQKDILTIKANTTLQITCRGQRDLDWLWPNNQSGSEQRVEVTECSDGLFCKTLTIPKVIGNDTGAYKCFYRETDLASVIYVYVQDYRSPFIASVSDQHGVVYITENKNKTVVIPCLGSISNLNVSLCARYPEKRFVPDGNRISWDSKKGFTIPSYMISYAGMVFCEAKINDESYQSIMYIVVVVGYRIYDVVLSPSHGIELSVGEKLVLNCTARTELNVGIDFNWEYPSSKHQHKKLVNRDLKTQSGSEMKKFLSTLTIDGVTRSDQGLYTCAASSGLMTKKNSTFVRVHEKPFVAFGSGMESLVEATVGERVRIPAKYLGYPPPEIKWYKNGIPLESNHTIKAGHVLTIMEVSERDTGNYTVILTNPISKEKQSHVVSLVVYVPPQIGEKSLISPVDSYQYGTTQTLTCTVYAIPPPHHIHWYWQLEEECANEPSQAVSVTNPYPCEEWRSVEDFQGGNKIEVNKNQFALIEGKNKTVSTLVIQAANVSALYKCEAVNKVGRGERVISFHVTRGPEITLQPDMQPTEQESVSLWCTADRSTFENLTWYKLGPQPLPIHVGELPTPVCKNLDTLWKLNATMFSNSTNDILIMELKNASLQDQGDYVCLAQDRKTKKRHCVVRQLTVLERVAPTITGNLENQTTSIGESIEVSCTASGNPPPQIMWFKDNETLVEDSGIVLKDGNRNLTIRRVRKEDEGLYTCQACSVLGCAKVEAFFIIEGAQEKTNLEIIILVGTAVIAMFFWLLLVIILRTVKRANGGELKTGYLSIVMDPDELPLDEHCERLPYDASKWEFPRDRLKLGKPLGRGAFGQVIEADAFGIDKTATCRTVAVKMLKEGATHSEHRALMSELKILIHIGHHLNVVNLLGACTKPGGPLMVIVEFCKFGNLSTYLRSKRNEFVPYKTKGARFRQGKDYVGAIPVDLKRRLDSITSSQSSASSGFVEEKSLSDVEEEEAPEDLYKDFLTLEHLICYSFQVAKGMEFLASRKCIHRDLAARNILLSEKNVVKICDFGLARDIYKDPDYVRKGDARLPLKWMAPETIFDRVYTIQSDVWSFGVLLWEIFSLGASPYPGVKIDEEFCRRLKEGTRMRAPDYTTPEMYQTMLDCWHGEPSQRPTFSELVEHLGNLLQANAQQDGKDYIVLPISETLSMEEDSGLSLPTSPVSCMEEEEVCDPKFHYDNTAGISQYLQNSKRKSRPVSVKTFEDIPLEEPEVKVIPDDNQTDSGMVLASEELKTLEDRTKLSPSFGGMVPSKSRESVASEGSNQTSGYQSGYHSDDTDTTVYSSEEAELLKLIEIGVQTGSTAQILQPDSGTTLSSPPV

For the compound `COc1cccc(Nc2ncnn3ccc(CN4CC[C@@H](N)[C@H](O)C4)c23)c1` [Compound I, (3R,4R)-4-amino-1-[[4-[(3-methoxyphenyl)amino]pyrrolo[2,1-f][1,2,4]triazin-5-yl]methyl]piperidin-3-ol], at HER1, the “inhibition of HER1” value is “potent inhibitor”. For the same compound, the anti-tumor efficacy entry in [1] was “excellent anti-tumor efficacy”. At VEGFR2, the “inhibition of VEGFR2” value was “potent inhibitor”. The antiproliferative activity entry in the data set on various tumor cell lines was “broad antiproliferative activity”. Moreover, the “inhibition of HER2” value against HER2 was “potent inhibitor”. In addition, the “inhibition of HER4” value against HER4 is listed as “potent inhibitor”.
As to `COc1cccc(Nc2ncnn3ccc(CN4CC[C@@H](N)[C@H](O)C4)c23)c1` [Form N-2, (3R,4R)-4-amino-1-[[4-[(3-methoxyphenyl)amino]pyrrolo[2,1-f][1,2,4]triazin-5-yl]methyl]piperidin-3-ol], the “thermodynamic stability relative to other form” value in data set [2] was “more thermodynamically stable than Form N-1”. Further, the “stability relationship from slurried mixtures of N-1 and N-2” value in data set [3] was “monotropically more stable”.
Turning to `COc1cccc(Nc2ncnn3ccc(CN4CC[C@@H](N)[C@H](O)C4)c23)c1` [Form N-1, (3R,4R)-4-amino-1-[[4-[(3-methoxyphenyl)amino]pyrrolo[2,1-f][1,2,4]triazin-5-yl]methyl]piperidin-3-ol], in [4], the “solid form conversion after melting” value was “recrystallizes as Form N-2”.
